From US11434537B2, “Biomarker for prognosis of colorectal cancer” (NATIONAL CHENG KUNG UNIVERSITY, priority 2020, dated 2022) come the findings set out here.

Type in all cases: cell-based, human
Experiment [1] deals with HCT116 cells. The experiment is described as follows: Wound-healing and Transwell migration assays, HCT116. The note with it: 10 μM for 48 h, HCT116 stable cells, wound healing 24 h (FIG. 14(e)). As to the method:
Then, HCT116 cells transfected with miR-338-5p were assessed for cell migration in vitro with a wound-healing assay analyzed at 24 h and a Transwell assay analyzed at 48 h (Corning, Corning City, N.Y.). Cell invasion in vitro was estimated using a Transwell assay, in which cells were seeded on Transwell columns coated with a Matrigel membrane (BD Biosciences, San Jose, Calif.). Then, cells on the bottom of membrane were counted after 96 h. […] Thus, miR-338-5p promotes CRC migration and invasion in vitro.

A further experiment deals with SW480 cells. The experiment is described as follows: Transwell migration assay, SW480. The note with it: 10 μM, Transwell (FIG. 14(c)).
The subject of a further experiment is LC3 puncta. As to the kind of experiment: LC3 puncta formation by immunofluorescent assay. The note with it: 10 μM, SW480 cells. As to the method:
(§1) FIGS. 14(a) to 14(f) show the involvement of autophagy in miR-338-5p-related CRC migration and invasion in vitro. […] LC3 puncta were labelled with anti-LC3 antibody and fluorescent isothiocyanate-conjugated goat anti-rabbit IgG (green fluorescence). SW480 cell nuclei were stained with Hoechst 33258 (blue fluorescence). Images were photographed using florescent microscopy (the scale bar represents 10 μm). Data are presented as median (IQR) (n=5) (P value was analyzed using Mann-Whitney tests). […] (100 nM). […] Data are presented as median (IQR) (n=5) (P value was analyzed using Mann-Whitney tests). The scale bar represents 50 μm. […] Number of migrated cells was counted after 24 h. The scale bar represents 100 μm. Data are expressed as median (IQR) (n=6) (P value was analyzed using MannWhitney tests). […] The scale bar represents 50 μm. Data are expressed as means±SEM (n=8) (P value was analyzed using t tests).
(§2) To clarify the mechanism(s) underlying miR-338-5p induced migration and invasion of CRC, the involvement of autophagy was assessed. Specifically, the LC3 puncta (microtubule associated protein 1A/1B-LC3) formation and LC3 type II (LC3-II) protein expression were examined in cells treated with amiodarone (an autophagy inducer) by immunofluorescent assay.

A further experiment has as its system LC3-II. As to the kind of experiment: Western blot of LC3-II (autophagy). The note with it: 10 μM, 48 h, CRC cells (SW480, HCT116). As to the method:
as §1
FIGS. 15(a) to 15(c) show the involvement of autophagy or EMT pathway in miR-338-5p-related CRC migration in vitro. […] Representative results of Transwell assays are also shown. […] Data are presented as means±SEM (n=8) (P values were analyzed using t tests). […] The number of migrated cells is shown as means±SEM (n=8) (P values were analyzed using t tests).
To clarify the mechanism(s) underlying miR-338-5p induced migration and invasion of CRC, the involvement of autophagy was assessed. […]

For experiment [2], the system named is HCT116 cells. As to the kind of experiment: Transwell invasion assay, HCT116. As to conditions: amiodarone-treated HCT116 cells, Transwell invasion 48 h (FIG. 14(f)). The procedure: as §1, §2

As to `CCCCc1oc2ccccc2c1C(=O)c1cc(I)c(OCCN(CC)CC)c(I)c1` [Amiodarone, amiodarone], the cell migration entry in the experiment with HCT116 cells [1] and in the experiment on SW480 cells was “inhibition of cell migration” throughout. In the experiment on LC3 puncta, the LC3 puncta formation entry is “induced LC3 puncta formation”. Further, the LC3-II expression result in the experiment with LC3-II is “activated LC3-II expression”. The cell invasion result in the experiment with HCT116 cells [2] is recorded as “inhibition of cell invasion”.
